# Experiment: Pharmacokinetics after oral capsules (sCT plus Dmt-DALDA with citric acid and lauroyl carnitine), non-enteric coated or enteric coated, in fasted beagle dogs (plasma; ELISA for sCT, HPLC-MS for Dmt-DALDA)
# Assay type: in vivo
# Conditions: for AUC / Cmax: normalized to a 1 mg dose; for Tmax / Cmax: beagle, dog, plasma, oral; for plasma peptide concentration normalized to a 1 mg dose: enteric coated capsule
# Experimental: A second series of tests was carried out, as noted above, using beagle dogs. […] In the experiments represented in FIGS. 2A and 2B, size 00 […] capsules were each filled with 758 mg of a powdered blend consisting of citric acid (643 mg), lauroyl carnitine (66 mg), talc (33 mg), salmon calcitonin (sCT) (13 mg) and Dmt-DALDA (2.4 mg). Half of the capsules were coated with an enteric coating solution of L30D-55, while the remaining 50% of the capsules were not coated. Four fasted dogs were each given 1 uncoated capsule, and 2 weeks later they were each given an enteric coated capsule. After administration of each capsule, samples of blood were taken at 15 minute intervals from an indwelling catheter for up to 4 hours. The blood samples were centrifuged and the resulting plasma supernatants were stored frozen at −20° C. The plasma samples were subsequently analyzed for sCT by a direct ELISA, and for Dmt-DALDA by HPLC-mass spectrometry performed as set forth in Wan, H. and Desiderio, D., Quantitation of [DMT^1] DALDA in ovine plasma by on-line liquid chromatography/quadrapole time-of-flight mass spectrometry, Rapid Communications in Mass Spectrometry, 2003; 17, 538-546, the contents of which are incorporated herein by reference.
# The results summarized in FIGS. 2A and 2B as plasma peptide concentration normalized to a 1 mg dose as a function of time relative to the average Tmax, (i.e., the time at which the maximum amount of peptide was detected) indicate that both peptides, i.e., sCT and Dmt-DALDA, were detected in dogs given uncoated or enteric coated capsules. […] Table DI (below) sets forth the values upon which the curves in FIGS. 2A and 2B are based. The results are summarized in the tables as plasma peptide concentration normalized to a 1 mg dose as a function of time. Table III, moreover, provides the standard deviations for the data obtained regarding each of the test dogs, which standard deviations are also indicated in FIGS. 2A and 2B.
# Table IV (below) summarizes the pharmacokinetic parameters in dogs of orally administered sCT and Dmt-DALDA when administered in non-enteric coated versus enteric coated capsules. Peptide was not detected from 1 dog in each group due to (a) Dog 3 vomiting the uncoated capsule and (b) delayed gastric emptying in Dog 2 provided with an enteric coated capsule. Cmax and AUC are as defined with regard to Table H above.
# [1] = Non-Enteric Capsule, Avg (n = 3)
smiles,measurement,setting,value
"Cc1cc(O)cc(C)c1C[C@H](N)C(=O)N[C@H](CCCNC(=N)N)C(=O)N[C@@H](Cc1ccccc1)C(=O)N[C@@H](CCCCN)C(N)=O [Dmt-DALDA, H-2,6-dimethyltyrosine-D-Arginine-Phenylalanine-Lysine-NH2]",AUC,"Enteric Capsule, Avg (n = 3)",1443143 pg/mL-min
same,AUC,"Enteric Capsule, Dog 1",2375695 pg/mL-min
same,AUC,"Enteric Capsule, Dog 2 (delayed gastric emptying)",0 pg/mL-min
same,AUC,"Enteric Capsule, Dog 3",1185373 pg/mL-min
same,AUC,"Enteric Capsule, Dog 4",768361 pg/mL-min
same,AUC,[1],542977 pg/mL-min
same,AUC,"Non-Enteric Capsule, Dog 1",410944 pg/mL-min
same,AUC,"Non-Enteric Capsule, Dog 2",707054 pg/mL-min
same,AUC,"Non-Enteric Capsule, Dog 3 (vomited capsule)",0 pg/mL-min
same,AUC,"Non-Enteric Capsule, Dog 4",510934 pg/mL-min
same,Tmax,"Enteric Capsule, Avg (n = 3)",100 min
same,Cmax,"Enteric Capsule, Avg (n = 3)",21 ng/mL
same,Tmax,"Enteric Capsule, Dog 1",45 min
same,Cmax,"Enteric Capsule, Dog 1",29.4 ng/mL
same,Tmax,"Enteric Capsule, Dog 3",135 min
same,Cmax,"Enteric Capsule, Dog 3",21.5 ng/mL
same,Tmax,"Enteric Capsule, Dog 4",120 min
same,Cmax,"Enteric Capsule, Dog 4",12.1 ng/mL
same,Tmax,[1],40 min
same,Cmax,[1],5.79 ng/mL
same,Tmax,"Non-Enteric Capsule, Dog 1",45 min
same,Cmax,"Non-Enteric Capsule, Dog 1",5.1 ng/mL
same,Tmax,"Non-Enteric Capsule, Dog 2",30 min
same,Cmax,"Non-Enteric Capsule, Dog 2",6.47 ng/mL
same,Tmax,"Non-Enteric Capsule, Dog 4",45 min
same,Cmax,"Non-Enteric Capsule, Dog 4",5.79 ng/mL
same,"Cmax and AUC, enteric coated capsules versus non enteric-coated capsules",dogs,significantly enhanced
same,Cmax of enteric coated relative to non enteric coated,dogs,4 fold
same,"amount of peptide detected in plasma, enteric coated capsules vs non-coated capsules",dogs,nearly four times as much
same,time at which the maximum concentration was seen,dogs given coated capsules,105 min
same,amount of Dmt-DALDA detected relative to sCT,dogs given enteric coated capsules,nearly equal amounts
same,amount of Dmt-DALDA detected relative to sCT,dogs given uncoated capsules,nearly three times as much
same,time at which the maximum concentration was seen,dogs given uncoated capsules,30 min
same,plasma peptide concentration normalized to a 1 mg dose,"Dog 1, 0 min",0 pg/mL
same,plasma peptide concentration normalized to a 1 mg dose,"Dog 1, 15 min",0 pg/mL
same,plasma peptide concentration normalized to a 1 mg dose,"Dog 1, 30 min",0 pg/mL
same,plasma peptide concentration normalized to a 1 mg dose,"Dog 1, 45 min",29440 pg/mL
same,plasma peptide concentration normalized to a 1 mg dose,"Dog 1, 60 min",25224 pg/mL
same,plasma peptide concentration normalized to a 1 mg dose,"Dog 1, 75 min",19768 pg/mL
same,plasma peptide concentration normalized to a 1 mg dose,"Dog 1, 90 min",19021 pg/mL
same,plasma peptide concentration normalized to a 1 mg dose,"Dog 1, 105 min",12324 pg/mL
same,plasma peptide concentration normalized to a 1 mg dose,"Dog 1, 120 min",8108 pg/mL
same,plasma peptide concentration normalized to a 1 mg dose,"Dog 1, 135 min",10714 pg/mL
same,plasma peptide concentration normalized to a 1 mg dose,"Dog 1, 150 min",9349 pg/mL
same,plasma peptide concentration normalized to a 1 mg dose,"Dog 1, 165 min",6743 pg/mL
same,plasma peptide concentration normalized to a 1 mg dose,"Dog 1, 180 min",5502 pg/mL
same,plasma peptide concentration normalized to a 1 mg dose,"Dog 1, 195 min",5008 pg/mL
same,plasma peptide concentration normalized to a 1 mg dose,"Dog 1, 210 min",3021 pg/mL
same,plasma peptide concentration normalized to a 1 mg dose,"Dog 2 (delayed gastric emptying), 0 min",0 pg/mL
same,plasma peptide concentration normalized to a 1 mg dose,"Dog 2 (delayed gastric emptying), 15 min",0 pg/mL
same,plasma peptide concentration normalized to a 1 mg dose,"Dog 2 (delayed gastric emptying), 30 min",0 pg/mL
same,plasma peptide concentration normalized to a 1 mg dose,"Dog 2 (delayed gastric emptying), 45 min",0 pg/mL
same,plasma peptide concentration normalized to a 1 mg dose,"Dog 2 (delayed gastric emptying), 60 min",0 pg/mL
same,plasma peptide concentration normalized to a 1 mg dose,"Dog 2 (delayed gastric emptying), 75 min",0 pg/mL
same,plasma peptide concentration normalized to a 1 mg dose,"Dog 2 (delayed gastric emptying), 90 min",0 pg/mL
same,plasma peptide concentration normalized to a 1 mg dose,"Dog 2 (delayed gastric emptying), 105 min",0 pg/mL
same,plasma peptide concentration normalized to a 1 mg dose,"Dog 2 (delayed gastric emptying), 120 min",0 pg/mL
same,plasma peptide concentration normalized to a 1 mg dose,"Dog 2 (delayed gastric emptying), 135 min",0 pg/mL
same,plasma peptide concentration normalized to a 1 mg dose,"Dog 2 (delayed gastric emptying), 150 min",0 pg/mL
same,plasma peptide concentration normalized to a 1 mg dose,"Dog 2 (delayed gastric emptying), 165 min",0 pg/mL
same,plasma peptide concentration normalized to a 1 mg dose,"Dog 2 (delayed gastric emptying), 180 min",0 pg/mL
same,plasma peptide concentration normalized to a 1 mg dose,"Dog 2 (delayed gastric emptying), 195 min",0 pg/mL
same,plasma peptide concentration normalized to a 1 mg dose,"Dog 2 (delayed gastric emptying), 210 min",0 pg/mL
same,plasma peptide concentration normalized to a 1 mg dose,"Dog 3, 0 min",0 pg/mL
same,plasma peptide concentration normalized to a 1 mg dose,"Dog 3, 15 min",0 pg/mL
same,plasma peptide concentration normalized to a 1 mg dose,"Dog 3, 30 min",0 pg/mL

# — patent US8835377B2, “Oral delivery of peptide pharmaceutical compositions” (UGP Therapeutics, Inc., priority 2004, dated 2014)
